Measurements as given in PMC12655172, “Borylated 5-Membered Ring Iminosugars: Synthesis and Biological Evaluation for Glycosidase Inhibition and Anticancer Properties for Application in Boron Neutron Capture Therapy (BNCT)—Part 2” (Pharmaceuticals, 2025).

Columns and labels:
[1] = test system: T1, trehalase (porcine kidney); test: Glycosidase inhibition (Table 2 panel); assay type: biochemical
T1 construct: purchased Sigma-Aldrich; host or cells: porcine kidney
Excerpt: (§1) The enzymes α-D-glucosidase (yeast), β-D-glucosidases (almond, bovine liver), α-D-galactosidase (coffee beans), β-D-galactosidase (bovine liver), α-D-mannosidase (Jack bean), β-D-mannosidase (snail), α-L-rhamnosidase (P. decumbens), α-L-fucosidase (bovine kidney), trehalase (porcine kidney), β-D-glucuronidases (E. coli, bovine liver), amyloglucosidase (A. niger), para-nitrophenyl glycosides, and various disaccharides were purchased from Sigma-Aldrich Co (St. Louis, MO, USA).
(§2) Brush border membranes were prepared from the rat small intestine according to the method of Kessler et al., and were assayed at pH 6.8 for rat intestinal maltase using maltose. For rat intestinal maltase, porcine kidney trehalase, and A. niger amyloglucosidase activities, the reaction mixture contained maltose ([…]) and the appropriate amount of enzyme, and the incubations were performed for 10–30 min at 37 °C. The reaction was stopped by heating at 100 °C for 3 min. After centrifugation (600 g; 10 min), the resulting reaction mixture was added to the Glucose CII-test Wako (Wako Pure Chemical Ind., Osaka, Japan). The absorbance at 505 nm was measured to determine the amount of the released D-glucose. Other glycosidase activities were determined using an appropriate para-nitrophenyl glycoside as substrate at the optimum pH of each enzyme. The reaction mixture contained the substrate ([…]) and the appropriate amount of enzyme. The reaction was stopped by the addition of Na2CO3 ([…]). The released para-nitrophenol was measured spectrometrically at 400 nm. All reactions were run in […].

[2] = test system: T2, α-D-galactosidase (coffee beans); test: Glycosidase inhibition (Table 2 panel); assay type: biochemical
T2 construct: purchased Sigma-Aldrich; host or cells: coffee beans
Excerpt: as §1, §2

[3] = test system: α-D-glucosidase (rat intestinal maltase); test: Glycosidase inhibition (Table 2 panel); assay type: biochemical
Excerpt: as §1, §2

α-D-glucosidase (rice) = α-D-glucosidase (rice) (Oryza sativa subsp. japonica, UniProt Q653V7); test: Glycosidase inhibition (Table 2 panel); assay type: biochemical
α-D-glucosidase (rice), sequence (Q653V7 34-885): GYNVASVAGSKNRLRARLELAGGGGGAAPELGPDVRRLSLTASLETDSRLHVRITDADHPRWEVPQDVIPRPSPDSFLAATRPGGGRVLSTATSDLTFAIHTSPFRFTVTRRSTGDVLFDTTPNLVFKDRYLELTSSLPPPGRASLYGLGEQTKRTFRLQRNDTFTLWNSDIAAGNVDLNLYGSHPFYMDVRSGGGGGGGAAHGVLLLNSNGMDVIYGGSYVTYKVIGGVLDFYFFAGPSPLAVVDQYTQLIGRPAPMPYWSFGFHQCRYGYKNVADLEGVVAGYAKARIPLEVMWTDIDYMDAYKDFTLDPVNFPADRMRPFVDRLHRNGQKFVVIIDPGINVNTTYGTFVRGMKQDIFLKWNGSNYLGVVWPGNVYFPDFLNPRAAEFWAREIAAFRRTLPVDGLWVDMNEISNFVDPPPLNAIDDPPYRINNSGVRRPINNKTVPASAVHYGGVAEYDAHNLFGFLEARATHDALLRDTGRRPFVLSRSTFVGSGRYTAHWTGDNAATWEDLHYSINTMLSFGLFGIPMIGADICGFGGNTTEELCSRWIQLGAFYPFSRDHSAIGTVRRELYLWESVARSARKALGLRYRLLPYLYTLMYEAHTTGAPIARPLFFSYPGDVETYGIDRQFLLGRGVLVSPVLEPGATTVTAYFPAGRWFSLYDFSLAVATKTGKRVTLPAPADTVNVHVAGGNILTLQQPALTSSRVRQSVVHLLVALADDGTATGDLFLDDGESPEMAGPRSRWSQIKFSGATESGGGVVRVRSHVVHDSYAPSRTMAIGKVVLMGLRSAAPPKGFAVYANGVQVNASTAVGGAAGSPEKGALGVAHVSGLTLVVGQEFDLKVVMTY
Excerpt: as §1, §2

[4] = test system: T3, α-D-mannosidase (Jack bean); test: Glycosidase inhibition (Table 2 panel); assay type: biochemical
T3 construct: purchased Sigma-Aldrich; host or cells: Jack bean
Excerpt: as §1, §2

[5] = test system: α-L-rhamnosidase (P. decumbens); test: Glycosidase inhibition (Table 2 panel); assay type: biochemical
Excerpt: as §1, §2

β-D-glucosidase (almond) = test: Glycosidase inhibition (Table 2 panel); assay type: biochemical
Excerpt: as §1, §2

[6] = biological target: T4, β-D-glucosidase (bovine liver) (Bos taurus, UniProt F1MNT6); test: Glycosidase inhibition (Table 2 panel); assay type: biochemical
T4 sequence (F1MNT6 1-469): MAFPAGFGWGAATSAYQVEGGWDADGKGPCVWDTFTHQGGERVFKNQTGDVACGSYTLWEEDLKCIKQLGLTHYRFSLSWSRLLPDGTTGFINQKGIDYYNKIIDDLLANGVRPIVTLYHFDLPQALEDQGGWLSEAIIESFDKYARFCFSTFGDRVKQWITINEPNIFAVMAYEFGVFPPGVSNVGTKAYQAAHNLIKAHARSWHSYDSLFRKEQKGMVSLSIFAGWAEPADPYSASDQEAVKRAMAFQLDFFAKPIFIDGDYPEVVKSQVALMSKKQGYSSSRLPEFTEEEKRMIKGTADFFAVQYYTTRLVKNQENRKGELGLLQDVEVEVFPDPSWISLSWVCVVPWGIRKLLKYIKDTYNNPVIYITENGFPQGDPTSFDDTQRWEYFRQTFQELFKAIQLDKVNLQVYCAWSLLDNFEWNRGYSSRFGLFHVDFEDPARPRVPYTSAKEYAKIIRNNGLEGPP
Excerpt: as §1, §2

[7] = test system: β-D-glucuronidase (bovine liver); test: Glycosidase inhibition (Table 2 panel); assay type: biochemical
Excerpt: as §1, §2

β-D-mannosidase (snail) = test: Glycosidase inhibition (Table 2 panel); assay type: biochemical
Excerpt: as §1, §2

[8] = Sample appearance on sample preparation in water; assay type: physicochemical; conditions: 1 mL of water was added to 1 mg solid
[9] = test system: A2780 (ovarian carcinoma); test: Cancer screening, MTT growth inhibition; assay type: cell-based; conditions: Homo sapiens; for inhibition at 25 µM: A2780, 25 µM of drug, 72 h, read-out: DOSE SCREEN percentage (%) cell growth inhibition A2780 Ovarian; for GI50: A2780, 72 h, read-out: DOSE RESPONSE GI50 A2780 Ovarian
Procedure: (§3) For Table 4, all test agents were prepared as stock solutions ([…]) in dimethyl sulfoxide (DMSO) and stored at −20 °C. Cell lines used in the study included HT29 (colorectal carcinoma), A2780 (ovarian carcinoma), H460 (lung carcinoma), A431 (skin carcinoma), MiaPaCa-2 (pancreatic carcinoma), and SMA560 (spontaneous murine astrocytoma), together with MCF10A (non-tumour derived normal breast cell line). Cell line sources: the HT29, H460, and MiaPaCa-2, together with MCF10A were purchased from ATCC. The A2780 and A431 were purchased from the European Collection of Cell Culture (ECACC). All cell lines were incubated in a humidified atmosphere 5% CO2 at 37 °C. The cancer cell lines were maintained in Dulbecco’s modified Eagle’s medium (DMEM; Sigma, Truganina, Australia) supplemented with foetal bovine serum (10%), sodium pyruvate ([…]), penicillin (100 IUmL^−1), streptomycin (100 µg mL^−1), and L-glutamine ([…]).
(§4) Growth inhibition was determined by plating cells in duplicate in medium (100 µL) at a density of 2500–4000 cells per well in 96-well plates. On day 0 (24 h after plating), when the cells are in logarithmic growth, medium (100 µL) with or without the test agent was added to each well. […] Each data point is the mean ± the standard error of the mean (SEM) calculated from three replicates which were performed on separate occasions and separate cell line passages.

H460 (lung carcinoma) = test: Cancer screening, MTT growth inhibition; assay type: cell-based; conditions: Homo sapiens; for inhibition at 25 µM: NCI-H460, 25 µM of drug, 72 h, read-out: DOSE SCREEN percentage (%) cell growth inhibition H460 Lung; for GI50: NCI-H460, 72 h, read-out: DOSE RESPONSE GI50 H460 Lung
Procedure: as §3, §4

[10] = test system: MIA-Pa-Ca2 (pancreatic carcinoma); test: Cancer screening, MTT growth inhibition; assay type: cell-based; conditions: Homo sapiens; for inhibition at 25 µM: MIA PaCa-2, 25 µM of drug, 72 h, read-out: DOSE SCREEN percentage (%) cell growth inhibition MIA-Pa-Ca2 Pancreatic; for GI50: MIA PaCa-2, 72 h, read-out: DOSE RESPONSE GI50 MIA-Pa-Ca2 Pancreatic
Procedure: as §3, §4

[11] = test system: MCF10A (non-tumour derived normal breast cell line); test: Cancer screening, MTT growth inhibition; assay type: cell-based; conditions: Homo sapiens, MCF-10A, 72 h; for inhibition at 25 µM: 25 µM of drug, read-out: DOSE SCREEN percentage (%) cell growth inhibition MCF10A Breast (normal); for GI50: read-out: DOSE RESPONSE GI50 MCF10A Breast (normal)

| Structure (SMILES) | inhibition % Trehalase Porcine Kidney ([1]; at 100 μM) | inhibition % Trehalase Porcine Kidney ([1]; at 1000 μM) | inhibition % α-D-Galactosidase Coffee Beans ([2]; at 100 μM) | inhibition % α-D-Glucosidase Rat Intestinal Maltase ([3]; at 100 μM) | inhibition at 100 µM (α-D-glucosidase (rice)) [%] | inhibition % α-D-Mannosidase Jack Bean ([4]; at 100 μM) | inhibition % α-L-Rhamnosidase P. decumbens ([5]; at 100 μM) | inhibition % β-D-Glucosidase Almond (β-D-glucosidase (almond); at 100 μM) | inhibition at 100 µM [6] [%] | inhibition % β-D-Glucuronidase Bovine Liver ([7]; at 100 μM) | inhibition % β-D-Mannosidase Snail (β-D-mannosidase (snail); at 100 μM) | Sample Appearance [8] | inhibition at 25 µM [9] [%] | GI50 [9] [µM] | inhibition at 25 µM (H460 (lung carcinoma)) [%] | GI50 (H460 (lung carcinoma)) [µM] | inhibition at 25 µM [10] [%] | GI50 [10] [µM] | inhibition at 25 µM [11] [%] | GI50 [11] [µM] | further results |
| --- | --- | --- | --- | --- | --- | --- | --- | --- | --- | --- | --- | --- | --- | --- | --- | --- | --- | --- | --- | --- | --- |
| CC1(C)O[C@H]2O[C@H]3[C@@H]([C@H]2O1)N(Cc1cccc(B2OC(C)(C)C(C)(C)O2)c1)C[C@H]3O [meta 2, N-(3-Methylphenylboronic acid pinacol ester)-3,6-dideoxy-3,6-imino-1,2-O-isopropylidene-α-D-gulofuranose] | ^cNI ^d(0%) | ^aNI ^b(5.8%) | ^cNI ^d(0%) | ^cNI ^d(5.8%) | 0 | ^cNI ^d(7.5%) | ^cNI ^d(1.5%) | ^cNI ^d(6.8%) | 0 | ^cNI ^d(1.4%) | ^cNI ^d(8.4%) | In solution | 25 ± 2 | > 50 | 5 ± 2 | > 50 | 19 ± 8 | > 50 | 6 ± 4 | > 50 | inhibition % α-D-Galactosidase Coffee Beans ([2]; at 1000 μM): ^aNI ^b(0%); inhibition % α-D-Glucosidase Rat Intestinal Maltase ([3]; at 1000 μM): ^aNI ^b(12.4%); inhibition at 1000 µM (α-D-glucosidase (rice); at 1000 μM): 2.9%; inhibition % α-D-Mannosidase Jack Bean ([4]; at 1000 μM): ^aNI ^b(0%); inhibition % α-L-Rhamnosidase P. decumbens ([5]; at 1000 μM): ^aNI ^b(0%); inhibition % β-D-Glucosidase Almond (β-D-glucosidase (almond); at 1000 μM): ^aNI ^b(12.6%); inhibition at 1000 µM [6]: 32.7%; inhibition % β-D-Glucuronidase Bovine Liver ([7]; at 1000 μM): ^aNI ^b(10.7%); inhibition % β-D-Mannosidase Snail (β-D-mannosidase (snail); at 1000 μM): ^aNI ^b(3.7%) |
| CC1(C)O[C@H]2O[C@H]3[C@@H]([C@H]2O1)N(Cc1ccccc1B(O)O)C[C@H]3O [ortho 5] | ^cNI ^d(4.9%) |  | ^cNI ^d(8.5%) | ^cNI ^d(0%) | 6.7 | ^cNI ^d(12.9%) | ^cNI ^d(0%) | ^cNI ^d(2.7%) | 13.4 | ^cNI ^d(0%) | ^cNI ^d(7.0%) | In solution | 19 ± 2 | > 50 | 2 ± 2 | > 50 | 12 ± 3 | > 50 | 7 ± 6 | > 50 |  |
| OC[C@H](O)[C@@H]1[C@H](O)[C@H](O)CN1Cc1ccccc1B(O)O [ortho 4, N-(2-Methylphenylboronic acid)-1,4-dideoxy-1,4-imino-L-gulitol] | ^cNI ^d(0%) | ^aNI ^b(0%) | ^cNI ^d(0%) | ^cNI ^d(0%) | 0 | ^cNI ^d(5.6%) | ^cNI ^d(4.9%) | ^cNI ^d(2.6%) | 3.3 | ^cNI ^d(0%) | ^cNI ^d(5.3%) | In solution | 16 ± 8 | > 50 | 8 ± 2 | > 50 | 7 ± 2 | > 50 | 8 ± 4 | > 50 | inhibition % α-D-Galactosidase Coffee Beans ([2]; at 1000 μM): ^aNI ^b(2.7%); IC50 (α-D-glucosidase (rice); listed as of the 1000 μM series): 622 µM; inhibition % α-D-Mannosidase Jack Bean ([4]; at 1000 μM): ^aNI ^b(0.4%); inhibition % α-L-Rhamnosidase P. decumbens ([5]; at 1000 μM): ^aNI ^b(9.5%); inhibition % β-D-Glucosidase Almond (β-D-glucosidase (almond); at 1000 μM): ^aNI ^b(40.1%); inhibition at 1000 µM [6]: 25.7%; inhibition % β-D-Glucuronidase Bovine Liver ([7]; at 1000 μM): ^aNI ^b(0.9%); inhibition % β-D-Mannosidase Snail (β-D-mannosidase (snail); at 1000 μM): ^aNI ^b(2.3%) |
| CC1(C)O[C@H]2O[C@H]3[C@@H]([C@H]2O1)N(Cc1cccc(B(O)O)c1)C[C@H]3O [meta 5, N-(3-Methylphenylboronic acid)-3,6-dideoxy-3,6-imino-1,2-O-isopropylidene-α-D-glucofuranose] | ^cNI ^d(0%) |  | ^cNI ^d(1.5%) | ^cNI ^d(0%) | 0 | ^cNI ^d(6.3%) | ^cNI ^d(0.6%) | ^cNI ^d(0%) | 23 | ^cNI ^d(2.9%) | ^cNI ^d(2.3%) | In solution | 32 ± 7 | > 50 | 10 ± 2 | > 50 | 16 ± 1 | > 50 | 7 ± 4 | > 50 |  |
| CC1(C)O[C@H]2O[C@H]3[C@@H]([C@H]2O1)N(Cc1cccc(O)c1)C[C@H]3O [meta 6] | ^cNI ^d(0%) |  | ^cNI ^d(0%) | ^cNI ^d(4.7%) | 0 | ^cNI ^d(9.5%) | ^cNI ^d(6.5%) | ^cNI ^d(6.3%) | 15.8 | ^cNI ^d(1.6%) | ^cNI ^d(0.6%) | In solution | 23 ± 6 | > 50 | 6 ± 3 | > 50 | 12 ± 4 | > 50 | 4 ± 2 | > 50 |  |
